Measured values published in article PMC2874894 (Investigative ophthalmology & visual science, 2009).

Biological target: rPASP (Pseudomonas aeruginosa small protease) (Pseudomonas aeruginosa, UniProt Q9I690)
Test: fluorescein-gelatin hydrolysis, fluorescence
Assay type: biochemical
Conditions: fluorescein-conjugated gelatin substrate; rPASP 10 ug; 24 h, 37 °C

Sequence of rPASP (Pseudomonas aeruginosa small protease) (Q9I690 whole entry): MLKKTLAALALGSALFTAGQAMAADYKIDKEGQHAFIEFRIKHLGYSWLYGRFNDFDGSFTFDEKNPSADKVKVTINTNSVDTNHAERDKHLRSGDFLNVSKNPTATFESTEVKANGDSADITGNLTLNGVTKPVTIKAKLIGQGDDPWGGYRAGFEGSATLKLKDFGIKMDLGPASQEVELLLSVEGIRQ

SMILES: Cc1ccc(S(=O)(=O)N[C@@H](CCCCN)C(=O)CCl)cc1 [TLCK]
- dose-dependent inhibition: Only TLCK demonstrated dose-dependent inhibition of rPASP activity
